Laboratory results published in patent US20230147993A1, “THIOPHENE COMPOUNDS WITH CYCLIC AMIDES, AND USES THEREOF” (Capulus Therapeutics, LLC, priority 2019, published 2023).
Where two headings read alike, the source gives them in different places.

What was measured:
[1] = Stability in human liver microsomes; assay type: in vitro ADME; conditions: 60 min at 37° C., NADPH
Experimental: (§1) Half-life Human Microsomes: Compounds were evaluated for stability in human liver microsomes. A 10 mM stock solution of the compound being evaluated was prepared in DMSO and diluted with water:acetonitrile (1:1) to a concentration of 1 mM. A working concentration of 100 μM was prepared by further dilution with water:acetonitrile (1:1). To make the preincubation mixture, 2.5 μL of the diluted compound was combined with 75 μL of human liver microsomes at 3.33 mg/mL, and 85 μL of 100 mM potassium phosphate buffer, and this mixture was pre-incubated for 10 min at 37° C. To make the 60 minute mixture without cofactor, 32.5 μL of the preincubation mixture was combined with 17.5 μL of 100 mM potassium phosphate buffer and incubated for 60 min at 37° C. To make the 0 min sample with cofactor (NADPH), 16.25 μL of the preincubation mixture was combined with 200 μL of acetonitrile containing internal standard and 8.75 μL of cofactor (NADPH). To make the incubation mixture, 62 μL of cofactor (2.85 mM) was combined with the remaining incubation mixture, and incubated for 60 min at 37° C. To prepare the sample mixture to be evaluated, 25 μL incubation mixture was combined with 200 μL of acetonitrile containing internal standard and vortexed for 5 min at 1200 rpm, then centrifuged for 10 min at 4000 rpm. The supernatant was diluted 2 fold with water and injected on LC-MS/MS. The sample mixture was evaluated by LC-MS/MS using 10 mM ammonium acetate with 0.1% FA as the aqueous mobile phase, and methanol as the organic mobile phase.

[2] = Stability in mouse liver microsomes; assay type: in vitro ADME
Experimental: as §1
Half-life Mouse Microsomes: Compounds were evaluated in mouse liver microsomes following a similar procedure as described above for human liver microsomes. A similar procedure could be used to evaluate compounds in rat liver microsomes.

[3] = tested on: SREBP; assay: Reporter Screening Assay (SRE-luciferase reporter, HepG2); assay type: cell-based; conditions: SREBPv1 Reporter cell line HepG2, 24 hours, 0.01 uM to 10 uM, read-out: I: Reporter Screening Assay (Ave EC50 (nM))
Experimental: Reporter Screening Assay: This assay was used to evaluate the effect on transcriptional activity SREBP of selected compounds using an SRE-luciferase reporter construct. On day 1, 10,000 cells were seeded in a 96 well (white) plate as per the plate map in Growth media without antibiotics. Cells were incubated at 37° C. for 8 hours. After 8 hours, cells were washed with DPBS for complete removal of FBS. DPBS was completely removed and Growth media was replaced with phenol free treatment medium (90 μl) with different FBS concentrations. The cells were then incubated at 37° C. for 24 hours with varying doses (0.01 uM to 10 uM) of compounds. Then a Luciferase assay was performed.
Reagents for performing Luciferase assay were stored at −20° C. To a tube of lyophilized assay substrate was added 1 mL Substrate Solvent and mixed well. The Substrate tube after reconstitution was covered with aluminum foil so as to keep it protected from light. The assay buffer was thawed to room temperature. To 20 mL Assay Buffer was added 200 µL of reconstituted 100× Substrate and mixed well. The reconstituted substrate as well as the assay solution (buffer + substrate) was protected from light throughout the procedure by keeping it covered with aluminum foil. Using a multi-channel pipette, 100 μL Assay Solution (buffer + substrate) was added directly to each sample well in Plate 1, which was incubated for 30 min (plate was covered with aluminum foil). After 30 min incubation, the plate was read for total luminescence. Each well was read for 2 seconds in a plate luminometer. (Microplate reader Envision Microplate reader from Perkin Elmer). Precaution was taken to incubate plate exactly for 30 min prior to reading on the plate reader.
Reporter Assay Materials: SREBPv1 Reporter cell line: HepG2-#32251. Growth Medium: MEM (Corning 10-010), 10% FBS, 1% GlutaMax (Invitrogen Catalog #35050061), […] (Invitrogen Catalog #A1113803) and 1% Penicillin-Streptomycin (Pen-Strep). Treatment Media: Phenol-free MEM (Invitrogen Catalog #51200-038) and 1% GlutaMax (Invitrogen Catalog #35050061). Luciferase Assay: LightSwitch Luciferase Assay Kit (Catalog #32032). LDH assay: Pierce LDH Cytotoxicity Assay Kit (Catalog #SD249616).

[4] = tested on: ACACA; assay: Gene expression in HepG2 cells (qPCR), ACACA; assay type: cell-based; conditions: for 48 hours, normalized to β-Actin, relative to mock or vehicle treated cells (ΔΔCT)
Experimental: Gene Expression: The effect of selected compounds on the gene expression of HepG2 cells was evaluated. HepG2 cells (P2) were seeded in 24 well plate (80,000 cells/well) for RNA extraction and in a 96 well plate (10,000 cells/well) for Cell Titer Glow (CTG). The media used was DMEM and contained 10% FBS. Each compound was evaluated at […] for 48 hours. Two biological replicates per experimental group were evaluated for RNA. For gene analysis, RNA was harvested with RNEasy kit and 20-100 ng used to synthesize cDNA with random primers. Quantitative PCR was performed on 1 pg to 100 ng cDNA for the following genes: ACACA, ACLY, FASN, LSS, PNPLA3. Gene expression levels were normalized with housekeeping gene, β-Actin, and relative expression levels determined using ΔΔCT method comparing treated to mock or vehicle treated cells as a baseline. “Total” gene expression refers to the average of the values of the 5 genes listed above.

Row | percent remaining after 60 min in human liver microsomes [1] | percent remaining after 60 min in mouse liver microsomes [2] | EC50 ([3]; Homo sapiens) [nM] | EC50 [3] [nM] | SMILES | A: ACACA, effect of compounds on gene expression of HepG2 cells [4]
1 | +++ (≥60.1 = +++) | +++ (≥60.1 = +++) | > 500 | – | CC(C)(O)COc1cc(-c2csc(-c3ccc(C(=O)N4CCC(O)CC4)cc3Cl)c2)ccn1 [Compound I-1629101, (3-chloro-4-(4-(2-(2-hydroxy-2-methylpropoxy)pyridin-4-yl)thiophen-2-yl)phenyl)(4-hydroxypiperidin-1-yl)methanone] | –
2 | +++ (≥60.1 = +++) | +++ (≥60.1 = +++) | < 249 | – | O=C(c1ccc(-c2cc(-c3ccnc(O[C@@H]4CO[C@H]5[C@@H]4OC[C@H]5O)c3)cs2)c(Cl)c1)N1CCC(O)CC1 [Compound I-1629106, (3-chloro-4-(4-(2-(((3R,3aR,6R,6aR)-6-hydroxyhexahydrofuro [3,2-b]furan-3-yl)oxy)pyridin-4-yl)thiophen-2-yl)phenyl)(4-hydroxypiperidin-1-yl)methanone] | –
3 | – | +++ (≥60.1 = +++) | < 249 | – | O=C(c1ccc(-c2cc(-c3ccnc(C4(CO)CC4)c3)cs2)c(Cl)c1)N1CC[C@H](O)[C@@H](F)C1 [Compound I-1629121, (3-chloro-4-(4-(2-(l-(hydroxymethyl)cyclopropyl)pyridin-4-yl)thiophen-2-yl)phenyl)((3S,4S)-3-fluoro-4-hydroxypiperidin-1-yl)methanone] | –
4 | – | – | < 249 | – | CC(C)[C@H](N)C(=O)OC1CCN(C(=O)c2ccc(-c3cc(-c4ccnc(C5(CO)CC5)c4)cs3)c(Cl)c2)CC1 [Compound I-1629122, 1-(3-chloro-4-(4-(2-(1-(hydroxymethyl)cyclopropyl)pyridin-4-yl)thiophen-2-yl)benzoyl)piperidin-4-yl L-valinate] | –
5 | – | – | < 249 | – | O=C(c1ccc(-c2cc(-c3ccnc4c3OCC(CO)O4)cs2)c(Cl)c1)N1CCC(O)CC1 (racemic) [Compound I-1629181, (3-chloro-4-(4-(3-(hydroxymethyl)-2,3-dihydro-[1,4]dioxino[2,3-b]pyridin-8-yl)thiophen-2-yl)phenyl)(4-hydroxypiperidin-1-yl)methanone] | –
6 | +++ (≥60.1 = +++) | +++ (≥60.1 = +++) | < 249 | – | O=C(c1ccc(-c2cc(-c3ccnc(OCC4CC(O)C4)c3)cs2)c(Cl)c1)N1CCC(O)CC1 (centres unmarked) [Compound I-1629118, (3-chloro-4-(4-(2-((3-hydroxycyclobutyl)methoxy)pyridin-4-yl)thiophen-2-yl)phenyl)(4-hydroxypiperidin-1-yl)methanone] | –
7 | +++ (≥60.1 = +++) | +++ (≥60.1 = +++) | > 500 | – | O=C(c1ccc(-c2cc(-c3ccnc(OC4COC4)c3)cs2)c(Cl)c1)N1CCC(O)CC1 [Compound I-1629100, (3-chloro-4-(4-(2-(oxetan-3-yloxy)pyridin-4-yl)thiophen-2-yl)phenyl)(4-hydroxypiperidin-1-yl)methanone] | –
8 | – | – | – | < 249 | CC(C)[C@H](N)C(=O)OCC1(c2cc(-c3csc(-c4ccc(C(=O)N5CCC(O)CC5)cc4Cl)c3)ccn2)CC1 [Compound I-1629123, (l-(4-(5-(2-chloro-4-(4-hydroxypiperidine-1-carbonyl)phenyl)thiophen-3-yl)pyridin-2-yl)cyclopropyl)methyl L-valinate] | –

The remaining lines, values behind:

Row | SMILES | percent remaining after 60 min in human liver microsomes [1] | percent remaining after 60 min in mouse liver microsomes [2] | EC50 ([3]; Homo sapiens) [nM] | EC50 [3] [nM] | A: ACACA, effect of compounds on gene expression of HepG2 cells [4]
9 | O=C(c1ccc(-c2cc(-c3ccnc(C4CCOC4)c3)cs2)c(Cl)c1)N1CCC(O)CC1 (centres unmarked) [Compound I-1628763, (3-chloro-4-(4-(2-(tetrahydrofuran-3-yl)pyridin-4-yl)thiophen-2-yl)phenyl)(4-hydroxypiperidin-1-yl)methanone] | + (0-30 = +) | +++ (≥60.1 = +++) | < 249 | – | ++ (0.31-0.7509 = ++)
10 | O=C(c1ccc(-c2cc(-c3ccnc(C4CCCO4)c3)cs2)c(Cl)c1)N1CCC(O)CC1 (centres unmarked) [Compound I-1628777, (3-chloro-4-(4-(2-(tetrahydrofuran-2-yl)pyridin-4-yl)thiophen-2-yl)phenyl)(4-hydroxypiperidin-1-yl)methanone] | + (0-30 = +) | +++ (≥60.1 = +++) | 250 to 500 | – | ++ (0.31-0.7509 = ++)
11 | O=C(c1ccc(-c2cc(-c3ccnc(CC4(F)CCC4)c3)cs2)c(Cl)c1)N1CCC(O)CC1 [Compound I-1629078, (3-chloro-4-(4-(2-((1-fluorocyclobutyl)methyl)pyridin-4-yl)thiophen-2-yl)phenyl)(4-hydroxypiperidin-1-yl)methanone] | + (0-30 = +) | +++ (≥60.1 = +++) | < 249 | – | ++ (0.31-0.7509 = ++)
12 | O=C(c1ccc(-c2cc(-c3ccnc(CC4(O)CCC4)c3)cs2)c(Cl)c1)N1CCC(O)CC1 [Compound I-1629077, (3-chloro-4-(4-(2-((1-hydroxycyclobutyl)methyl)pyridin-4-yl)thiophen-2-yl)phenyl)(4-hydroxypiperidin-1-yl)methanone] | + (0-30 = +) | ++ (30.1-60 = ++) | < 249 | – | ++ (0.31-0.7509 = ++)
13 | O=C(c1ccc(-c2cc(-c3ccnc(C4(CO)CCC4)c3)cs2)c(Cl)c1)N1CCC(O)CC1 [Compound I-1629089, (3-chloro-4-(4-(2-(1-(hydroxymethyl)cyclobutyl)pyridin-4-yl)thiophen-2-yl)phenyl)(4-hydroxypiperidin-1-yl)methanone] | + (0-30 = +) | +++ (≥60.1 = +++) | > 500 | – | –
14 | O=C(c1ccc(-c2cc(-c3ccnc(OC4CC(CO)C4)c3)cs2)c(Cl)c1)N1CCC(O)CC1 (centres unmarked) [Compound I-1629110, (3-chloro-4-(4-(2-(3-(hydroxymethyl)cyclobutoxy)pyridin-4-yl)thiophen-2-yl)phenyl)(4-hydroxypiperidin-1-yl)methanone] | +++ (≥60.1 = +++) | +++ (≥60.1 = +++) | < 249 | – | –
15 | O=C(c1ccc(-c2cc(-c3ccnc(OC4CC(O)C4)c3)cs2)c(Cl)c1)N1CCC(O)CC1 (centres unmarked) [Compound I-1629124, (3-chloro-4-(4-(2-(3-hydroxycyclobutoxy)pyridin-4-yl)thiophen-2-yl)phenyl)(4-hydroxypiperidin-1-yl)methanone] | – | +++ (≥60.1 = +++) | < 249 | – | –
